Experimental data taken from PubChem BioAssay AID330 (DTP/NCI, 2004).
“And” between values parts separate entries of the source, which are not always exact repeats. Identical values can stand only once. Toxic doses and inconclusive results are not listed.

Tested on: P388 leukemia ip, CD2F1 mice, survival T/C
Test: NCI In Vivo Anticancer Drug Screen. Data for tumor model P388 Leukemia (intraperitoneal) in CD2F1 (CDF1) mice
Settings: endpoint: median survival time, higher = longer survival
How it was run: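 Mice carrying the transplanted tumor received test compound or vehicle. Survival was recorded in each group, and the value is the treated-group measurement divided by that of the vehicle-treated control group.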

[1] = dose: 100.0 mg/kg/injection, schedule: Q01DX009 (ip), vehicle: saline with Tween-80
[2] = dose: 200.0 mg/kg/injection, schedule: Q01DX009 (ip), vehicle: saline with Tween-80
[3] = dose: 50.0 mg/kg/injection, schedule: Q01DX009 (ip), vehicle: saline
[4] = dose: 100.0 mg/kg/injection, schedule: Q01DX009 (ip), vehicle: saline
[5] = dose: 200.0 mg/kg/injection, schedule: Q01DX009 (ip), vehicle: saline
[6] = dose: 50.0 mg/kg/injection, schedule: Q01DX009 (ip), vehicle: saline with Tween-80
[7] = dose: 50.0 mg/kg/injection, schedule: Q01DX005 (ip), vehicle: Klucel (hydroxypropylcellulose) (HPC)

With O=[N+]([O-])c1cccc(/C=C/C=C/c2ccc(Cl)c(S(=O)(=O)F)c2)c1 the T/C [1] was 86 % of control, the T/C [2] was 86 % of control and the T/C (dose: 400.0 mg/kg/injection, schedule: Q01DX009 (ip), vehicle: saline with Tween-80) was 86 % of control.

CCCc1[nH]n(-c2cccc([N+](=O)[O-])c2)c(=O)c1N=Nc1ccc(Cl)cc1 was tested, and the T/C [3] was 93 % of control, the T/C [4] was 90 % of control and the T/C [5] was 87 % of control.

In the case of CC1CCC(C(C)C)C([c-]2[c-][c-][c-][c-]2)C1.CC1CCC(C(C)C)C([c-]2[c-][c-][c-][c-]2)C1.[Cl][Zr][Cl] (stereo not given), the T/C (dose: 6.25 mg/kg/injection, schedule: Q01DX001 (ip), vehicle: Klucel (hydroxypropylcellulose) (HPC)) was 110 % of control, the T/C (dose: 12.5 mg/kg/injection, schedule: Q01DX001 (ip), vehicle: Klucel (hydroxypropylcellulose) (HPC)) was 100 % of control and the T/C (dose: 25.0 mg/kg/injection, schedule: Q01DX001 (ip), vehicle: Klucel (hydroxypropylcellulose) (HPC)) was 103 % of control.

With Clc1ccccc1C(c1ccccc1)(c1ccccc1)n1ccnc1 the T/C [3] was 113 % of control, the T/C [4] was 113 % of control and the T/C [5] was 113 % of control.

CC1(C)N=C(N)N=C(N)N1c1ccc(CNC(=O)Nc2ccc(S(=O)(=O)F)cc2)cc1 was tested, and the T/C (dose: 100.0 mg/kg/injection, schedule: Q04DX003 (ip), vehicle: saline) was 172 % of control, the T/C (dose: 200.0 mg/kg/injection, schedule: Q04DX003 (ip), vehicle: saline) was 181 % of control and the T/C (dose: 400.0 mg/kg/injection, schedule: Q04DX003 (ip), vehicle: saline) was 90 % of control.

With COc1ccc(CN2COc3c(cc(C)c4cccnc34)C2)cc1 the T/C [6] was 98 % of control and the T/C [2] was 111 % of control.

For COC(=O)c1nc(=S)[nH]c(C(=O)OC)c1C(=O)c1ccc(Cl)c(Cl)c1, the T/C (dose: 60.0 mg/kg/injection, schedule: Q01DX005 (ip), vehicle: Klucel (hydroxypropylcellulose) (HPC)) was 89 % of control, the T/C (dose: 120.0 mg/kg/injection, schedule: Q01DX005 (ip), vehicle: Klucel (hydroxypropylcellulose) (HPC)) was 92 % of control and the T/C (dose: 240.0 mg/kg/injection, schedule: Q01DX005 (ip), vehicle: Klucel (hydroxypropylcellulose) (HPC)) was 95 % of control.

For Clc1ccc(N2CCOCC2)nn1, the T/C [3] was 104 % of control, the T/C [4] was 88 % of control and the T/C [5] was 100 % of control.

In the case of C(=N\N1CCCCCC1)/c1c2ccccc2cc2ccccc12, the T/C (dose: 50.0 mg/kg/injection, schedule: Q01DX005 (ip), vehicle: Klucel + Tween-80) was 89 % of control, the T/C (dose: 100.0 mg/kg/injection, schedule: Q01DX005 (ip), vehicle: Klucel + Tween-80) was 90 % of control and the T/C (dose: 200.0 mg/kg/injection, schedule: Q01DX005 (ip), vehicle: Klucel + Tween-80) was 92 % of control.

CN(C)c1ncnc2c1ncn2C1CCCCO1 (stereo not given) was tested, and the T/C (dose: 12.5 mg/kg/injection, schedule: Q01DX005 (ip), vehicle: Klucel (hydroxypropylcellulose) (HPC)) was 103 % of control, the T/C (dose: 25.0 mg/kg/injection, schedule: Q01DX005 (ip), vehicle: Klucel (hydroxypropylcellulose) (HPC)) was 105 % of control and the T/C [7] was 100 % of control.

O=C(O)C1CSC(c2ccccc2O)N1 (stereo not given) was tested, and the T/C [3] was 90 % of control, the T/C [4] was 96 % of control and the T/C [5] was 90 % of control.

For CC(=O)OC(CCl)C1OC(CCl)C(OC(C)=O)O1 (stereo not given), the T/C [6] was 103 % of control, the T/C [1] was 103 % of control and the T/C [2] was 102 % of control.

For O=C(NCCCCCCNC(=O)c1ccccc1)c1ccccc1, the T/C [7] was 100 % of control and 90 % of control, the T/C (dose: 100.0 mg/kg/injection, schedule: Q01DX005 (ip), vehicle: Klucel (hydroxypropylcellulose) (HPC)) was 107 % of control and 86 % of control and the T/C (dose: 200.0 mg/kg/injection, schedule: Q01DX005 (ip), vehicle: Klucel (hydroxypropylcellulose) (HPC)) was 89 % of control and 90 % of control.

With Cc1ccc(N2C(=O)CC3(CCCC3)C2=O)cc1[N+](=O)[O-] the T/C (dose: 100.0 mg/kg/injection, schedule: Q04DX002 (ip), vehicle: Klucel (hydroxypropylcellulose) (HPC)) was 106 % of control, the T/C (dose: 200.0 mg/kg/injection, schedule: Q04DX002 (ip), vehicle: Klucel (hydroxypropylcellulose) (HPC)) was 105 % of control and the T/C (dose: 400.0 mg/kg/injection, schedule: Q04DX002 (ip), vehicle: Klucel (hydroxypropylcellulose) (HPC)) was 97 % of control.

In the case of Cc1cc(O)c2c(c1)C(=O)C(c1c(C)cc3c(c1O)C(=O)C1OC1C3=O)=CC2=O (stereo not given), the T/C (dose: 0.78 mg/kg/injection, schedule: Q01DX005 (ip), vehicle: Klucel (hydroxypropylcellulose) (HPC)) was 91 % of control, the T/C (dose: 1.56 mg/kg/injection, schedule: Q01DX005 (ip), vehicle: Klucel (hydroxypropylcellulose) (HPC)) was 106 % of control and the T/C (dose: 3.12 mg/kg/injection, schedule: Q01DX005 (ip), vehicle: Klucel (hydroxypropylcellulose) (HPC)) was 113 % of control. The T/C (dose: 6.25 mg/kg/injection, schedule: Q01DX005 (ip), vehicle: Klucel (hydroxypropylcellulose) (HPC)) was 100 % of control.
